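A five-concentration, 48-hour dose response in 96-well plates underlies each endpoint, interpolated linearly between surrounding concentrations. GI50 = concentration required for 50% inhibition of growth. The concentration for full growth arrest is given as TGI.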
Experiments:
Experiment in all cases: inhibition of tumour cell growth, NCI panel, 48 h
RXF 393 renal = tested on: RXF 393 renal
HT29 colon = tested on: HT29 colon
K-562 leukemia = tested on: K-562 leukemia
NCI-H23 lung = tested on: NCI-H23 lung
OVCAR-4 ovarian = tested on: OVCAR-4 ovarian
DU-145 prostate = tested on: DU-145 prostate
UACC-62 melanoma = tested on: UACC-62 melanoma
OVCAR-5 ovarian = tested on: OVCAR-5 ovarian
A549 NSCLC = tested on: A549 NSCLC
U251 CNS = tested on: U251 CNS

| Structure (SMILES) | GI50 (RXF 393 renal) | TGI (RXF 393 renal) | GI50 (HT29 colon) | TGI (HT29 colon) | GI50 (K-562 leukemia) | TGI (K-562 leukemia) | GI50 (NCI-H23 lung) | TGI (NCI-H23 lung) | GI50 (OVCAR-4 ovarian) | TGI (OVCAR-4 ovarian) | GI50 (DU-145 prostate) | TGI (DU-145 prostate) | GI50 (UACC-62 melanoma) | TGI (UACC-62 melanoma) | GI50 (OVCAR-5 ovarian) | TGI (OVCAR-5 ovarian) | GI50 (A549 NSCLC) | TGI (A549 NSCLC) | GI50 (U251 CNS) | TGI (U251 CNS) |
| --- | --- | --- | --- | --- | --- | --- | --- | --- | --- | --- | --- | --- | --- | --- | --- | --- | --- | --- | --- | --- |
| Cc1c(-c2ccc(C3CCCCC3)cc2)nc2ccc(F)cc2c1C(=O)O | 10.7 µM | > 100 µM | 311 nM | > 100 µM | 57.4 nM | > 100 µM | 6.54 µM | > 100 µM | 38 µM | > 100 µM | 802 nM | > 100 µM | 205 nM | > 100 µM | > 100 µM | > 100 µM | 128 nM | > 100 µM | 58.8 nM | > 100 µM |
| C[C@H]1/C(=C/C(=O)OCCN(C)C)CC[C@H]2[C@H]1C(=O)C[C@H]1C(C)(C)[C@@H](O)CC[C@]21C |  | > 100 µM |  | > 100 µM | > 100000 nM | > 100 µM |  | > 100 µM |  | > 100 µM |  | > 100 µM |  | > 100 µM |  | > 100 µM |  | > 100 µM |  | > 100 µM |
| CC1(C)S[C@@H]2[C@H](N3C(=O)c4ccccc4C3=O)CN2[C@H]1NC(=O)N[C@@H]1N2C[C@@H](N3C(=O)c4ccccc4C3=O)[C@H]2SC1(C)C |  | 82.1 µM |  | > 100 µM |  | > 100 µM |  | > 100 µM |  | > 100 µM |  | > 100 µM |  | > 100 µM |  | > 100 µM |  | > 100 µM |  | 58.5 µM |
| BrC(Br)=C1C(=C(Br)Br)C(Br)C1Br (stereo unspecified) |  | 0.948 µM |  | 1.49 µM |  | 1.19 µM |  | 1.46 µM |  | 6.18 µM |  | 0.502 µM |  | 1.91 µM |  | 3.27 µM |  | 3 µM |  | 2.69 µM |
| COc1cc2c3cc1Oc1c(OC)c(OC)cc4c1C(=NCC4)Cc1ccc(cc1)Oc1cc(ccc1O)C[C@H]3N(C)CC2 |  | 24.9 µM |  | 23.3 µM |  | 74.1 µM |  | 44 µM |  | 40.7 µM |  | > 100 µM |  | 30.3 µM |  | > 100 µM |  | > 100 µM |  | 45.2 µM |
| O=C(/C=C/c1ccc(Cl)cc1)c1ccccc(=O)c1O |  | > 100 µM |  | 10.8 µM |  | 12.1 µM |  | 18.1 µM |  | 17.9 µM |  | 19.1 µM |  | 6 µM |  | 19.8 µM |  | > 39.2 µM |  | > 100 µM |
